These results are taken from patent US20210212913A1, “COSMETIC COMPOSITION FOR PROMOTING SKIN EXFOLIATION” (LG HOUSEHOLD & HEALTH CARE LTD., priority 2017, published 2021).

Each structure is given as a SMILES string.

This assay has as its system porcine skin stratum corneum. Briefly: porcine skin stratum corneum evaluation (exfoliation evaluation). The settings on record: 6 mm porcine skin sample, 100 ul sample, 37° C. and 50% humidity for a day; result in words (values only in figures). Format: cell-based, pig. How it is done:
For the porcine skin stratum corneum evaluation of the present disclosure, the exfoliation evaluation method mentioned in Journal of the European Academy of Dermatology and Venereology, 2014, 28, 415-423 was modified and used. Specifically, a sample of 6 mm diameter from 1 mm thick skin of a pig, and the like, was taken with a biopsy tool, and it was placed in a 96-well plate, and after washing it with phosphate buffered saline (PBS) once, 100 ul of the sample to be tested was added. The present sample was stored under the conditions of 37° C. and 50% humidity for a day, and then the number of exfoliated stratum corneum was measured with a cell counter and a sample containing only water was plotted as a negative control group and 10% gluconolactone […] was plotted as a positive control group. The result was shown in the fold increase compared to the value of the result of gluconolactone 10% pH 6 for relative comparison.

For `NC(=O)NC1NC(=O)NC1=O` (stereo not shown) [allantoin], the “exfoliation ability (number of exfoliated stratum corneum, fold increase compared to gluconolactone 10% pH 6)” value is on record as “did not have high efficacy when used alone”.
